Results as given in US8901308B2, “Triazole compounds that modulate Hsp90 activity” (Synta Pharmaceuticals Corp., priority 2004, dated 2014).
Entries after “also recorded” stand apart in the source; their conditions may differ.

Experiments:
[1] = test system: c-kit in HEL92.1.7 cells; assay: FACS-based c-kit degradation assay in HEL92.1.7 cells; assay type: cell-based; settings: about 18 h
Procedure: (§1) Two leukemia cell lines, HEL92.1.7 and Kasumi-1, were used for testing c-kit degradation induced by Hsp90 inhibitors of the invention. […] The cells were collected and centrifuged (SORVALL RT 6000D) at 1200 rpm for 5 min. The supernatants were discarded, and the cells were washed one time with 1×PBS. After centrifugation the cells were stained with FITC conjugated c-kit antibody (MBL International, Cat# K0105-4) in […] 1×PBS at 4° C. for 1 h. The samples were read and analysized with FACSCalibur flow cytometer (Becton Dicknson).

[2] = test system: c-kit in Kasumi-1 cells; assay: Western blot analysis of c-Kit in Kasumi-1 cells; assay type: cell-based
Description: The results of the FACS analysis were confirmed with Western blot analysis (see FIG. 5). […] In contrast, 17-AAG had no effect of c-Kit protein levels.

[3] = test system: RERF-LC-AI^IVP human lung tumor cells; assay: RERF-LC-AI^IVP nude mouse xenograft model; assay type: in vivo; settings: for Growth rate of RERF-LC-AI^IVP tumors: 5 times per week, 15 doses
Procedure: The human squamous non-small cell lung cancer cell line, RERF-LC-AI (RCB0444; S. Kyoizumi, et al., Cancer. Res. 45:3274-3281, 1985), was obtained from the Riken Cell Bank (Tsukuba, Ibaraki, Japan). […] FBS was obtained from American Type Culture Collection (Manassas, Va., USA) and all other reagents were obtained from Invitrogen Corp. (Carlsbad, Calif., USA). Approximately 4−5×10(6) cells that had been cryopreserved in liquid nitrogen were rapidly thawed at 37° C. and transferred to a 175 cm^2 tissue culture flask containing 50 ml of growth media and then incubated at 37° C. in a 5% CO2 incubator.
The growth media was replaced every 2-3 days until the flask became 90% confluent, typically in 5-7 days. To passage and expand the cell line, a 90% confluent flask was washed with 10 ml of room temperature phosphate buffered saline (PBS) and the cells were disassociated by adding 5 ml 1× trypsin-EDTA (Invitrogen) and incubating at 37° C. until the cells detached from the surface of the flask. To inactivate the trypsin, 5 ml of growth media was added and then the contents of the flask were centrifuged to pellet the cells. The supernatant was aspirated and the cell pellet was resuspended in 10 ml of growth media and the cell number determined using a hemocytometer. Approximately 1-3×10(6) cells per flask were seeded into 175 cm^2 flasks containing 50 ml of growth media and incubated at 37° C. in a 5% CO2 incubator. When the flasks reached 90% confluence, the above passaging process was repeated until sufficient cells had been obtained for implantation into mice.
Seven to eight week old, female Crl:CD-1-nuBR (nude) mice were obtained from Charles River Laboratories (Wilmington, Mass., USA). Animals were housed 4-5/cage in micro-isolators, with a 12 hr/12 hr light/dark cycle, acclimated for at least 1 week prior to use and fed normal laboratory chow ad libitum. Studies were conducted on animals between 8 and 12 weeks of age at implantation. […] Using a 27 gauge needle and 1 cc syringe, 0.1 ml of the cell suspension was injected subcutaneously into the flank of each nude mouse. Tumor volumes (V) were calculated by caliper measurement of the width (W), length (L) and thickness (T) of tumors using the following formula: V=0.5236×(L×W×T).
In vivo passaged RERF-LC-AI tumor cells (RERF-LC-AI^IVP) were isolated to improve the rate of tumor implantation relative to the parental cell line in nude mice. RERF-LC-AI tumors were permitted to develop in vivo until they reached approximately 250 mm^3 in volume, which required approximately 3 weeks following implantation. Mice were euthanized via CO2 asphyxiation and their exteriors sterilized with 70% ethanol in a laminar flow hood. Using sterile technique, tumors were excised and diced in 50 ml PBS using a scalpel blade. […]

[4] = test system: c-kit in Kasumi-1 cells; assay: FACS-based c-kit degradation assay in Kasumi-1 cells; assay type: cell-based; settings: about 18 h
Procedure: as §1

[5] = test system: Her2, an Hsp90 client protein; assay: Degradation of Her2 in BT-474 cells (Western blot); assay type: cell-based, Human; settings: overnight
Procedure: Human high-Her2 breast carcinoma BT474 (HTB-20), SK-BR-3 (HTB-30) and MCF-7 breast carcinoma (HTB-22) from American Type Culture Collection, VA, USA were grown in Dulbecco's modified Eagle's medium with 4 mM L-glutamine and antibiotics (100 IU/ml penicillin and 100 ug/ml streptomycine; GibcoBRL). To obtain exponential cell growth, cells were trypsinized, counted and seeded at a cell density of 0.5×10^6 cells/ml regularly, every 3 days. All experiments were performed on day 1 after cell passage.
After treatment, each cytoplasmic sample was prepared from 1×10^6 cells by incubation of cell lysis buffer (#9803, cell Signaling Technology) on ice for 10 minutes. The resulting supernatant used as the cytosol fractions were dissolved with sample buffer for SDS-PAGE and run on a SDS-PAGE gel, blotted onto a nitrocellulose membrane by using semi-dry transfer. Non-specific binding to nitrocellulose was blocked with 5% skim milk in TBS with 0.5% Tween at room temperature for 1 hour, then probed with anti-Her2/ErB2 mAb (rabbit IgG, #2242, Cell Signaling) and anti-Tubulin (T9026, Sigma) as housekeeping control protein. HRP-conjugated goat anti-rabbit IgG (H+L) and HRP-conjugated horse anti-mouse IgG (H+L) were used as secondary Ab (#7074, #7076, Cell Signaling) and LumiGLO reagent, 20× Peroxide (#7003, Cell Signaling) was used for visualization.

[6] = test system: Hsp90 protein; assay: Malachite Green assay of ATPase activity of Hsp90; assay type: biochemical; settings: 37° C., 4 hours
Procedure: Hsp90 protein was obtained from Stressgen (Cat#SPP-770). Assay buffer: 100 mM Tris-HCl, Ph7.4, 20 mM KCl, 6 mM MgCl2. […] Malachite green reagent was added to the reaction. […] The plate was read by an ELISA reader with an absorbance at 620 nm.

C=CCNC1=C2C[C@@H](C)C[C@H](OC)[C@H](O)[C@@H](C)/C=C(\C)[C@H](OC(N)=O)[C@@H](OC)/C=C\C=C(/C)C(=O)NC(=CC1=O)C2=O [Compound 17-AAG, 17-allylamino-17-demethoxygeldanamycin, reference compound]
c-kit degradation ([1]; 0.5 μM): could not induce c-kit degradation
c-Kit protein levels (Western blot) ([2]; concentration not given): had no effect
Growth rate of RERF-LC-AI^IVP tumors ([3]; 75 mg/kg body weight i.p.): inhibited tumor growth; also recorded: decreased the growth rate
Maximum tolerated dose in nude mice ([3]; i.p., dosed at approximately the maximum tolerated dose): ~75 mg/kg body weight
c-kit degradation ([4]; 0.5 μM): could not induce c-kit degradation

CCc1cc(-c2nnc(S)n2-c2ccc(OC)c3c2ccn3C(C)C)c(O)cc1O [Compound 188, 3-(2,4-Dihydroxy-5-ethyl-phenyl)-4-(1-isopropyl-7-methoxy-indol-4-yl)-5-mercapto-[1,2,4] triazole]
c-kit degradation ([1]; 0.05 μM): induced c-kit degradation
c-kit degradation ([1]; 0.5 μM): induced c-kit degradation
Growth rate of RERF-LC-AI^IVP tumors ([3]; 200 mg/kg body weight i.p.): inhibited tumor growth; also recorded: decreased the growth rate
Maximum tolerated dose in nude mice ([3]; mouse, in vivo, ip): ~200 mg/kg body weight
c-kit degradation ([4]; 0.05 μM): induced c-kit degradation
c-kit degradation ([4]; 0.5 μM): induced c-kit degradation

Oc1ccc(-c2nnc(S)n2-c2cccc3ccccc23)c(O)c1 [Compound 108, 3-(2,4-Dihydroxy-phenyl)-4-(naphthalen-1-yl)-5-mercapto-[1,2,4] triazole]
Degradation of Her2 ([5]; 0.5 μM): partially degradated
Degradation of Her2 ([5]; 2 μM): partially degradated
Degradation of Her2 ([5]; 5 μM): almost completely degraded
ATPase activity of Hsp90 ([6]; 4 μM): significant inhibition
ATPase activity of Hsp90 ([6]; 40 μM): even greater inhibition

CC(C)c1cc(-c2nnc(S)n2-c2ccc3c(ccn3C)c2)c(O)cc1O [Compound 221, 3-(2,4-dihydroxy-5-isopropyl-phenyl)-4-(N-methyl-indol-5-yl)-5-mercapto-[1,2,4] triazole]
c-kit degradation ([1]; 0.05 μM): induced c-kit degradation
c-kit degradation ([1]; 0.5 μM): induced c-kit degradation
c-Kit protein levels (Western blot) ([2]; 100 nM): induced the degradation of c-Kit
c-Kit protein levels (Western blot) ([2]; 400 nM): induced the degradation of c-Kit
c-kit degradation ([4]; 0.05 μM): induced c-kit degradation
c-kit degradation ([4]; 0.5 μM): induced c-kit degradation
